Laboratory results as given in publication PMC8620715, “Biological Activity of Triazolopyrimidine Copper(II) Complexes Modulated by an Auxiliary N-N-Chelating Heterocycle Ligands” (Molecules, 2021).
Where two headings read alike, the source gives them in different places.

Columns and labels:
[1] = test system: BJ normal cell line (human fibroblast cells); experiment: MTT cell viability assay, BJ normal cells; assay type: cell-based; conditions: for IC50 / reduction of BJ cell viability at the highest concentration: BJ
Description: Human fibroblast cells (BJ—ATCC CRL-2522, USA) were grown in minimal essential medium (MEM) supplemented with 2 mM L-Glutamine, 10% fetal calf serum (FCS), 100 units/mL of penicillin, and 100 µg/mL of streptomycin at 37 °C in a humidified incubator under an atmosphere containing 5% CO2. Mouse melanoma cells (B16—ATCC CRL—6475, USA) were grown in DMEM (Dulbecco’s Modified Eagle Medium) supplemented with similar reagents as MEM. All cell cultivation media and reagents were purchased from Biochrom AG (Berlin, Germany) and Sigma-Aldrich (Darmstadt, Germany).
Cell viability was evaluated using 3-(4,5-dimethylthiazol-2-yl)-2,5-diphenyltetrazolium bromide (MTT) assay as described previously. First, the cells were seeded in 96-well plates (20000 cells/well) and cultured for 24 h in medium. […] The negative control was represented by cells cultivated in a medium without the investigated compounds. Following incubation, the medium was changed, and the MTT solution was added to each well to a final concentration of 1 mg/mL and incubated for an additional 4 h, at 37 °C. Finally, the medium was collected, and DMSO was used to dissolve the insoluble formazan product. The absorbance of the samples was recorded at 570 nm using a plate reader Mithras 940 (Berthold). The data were corrected for the background, and the percentage of viable cells was obtained using the equation:Cell viability = [(A570 of treated cells)/(A570 of untreated cells)] × 100%(1)
The half-maximal inhibitory concentration (IC50) was determined by fitting the data with a sigmoidal logistical equation using the software Origin 8.1 (Microcal Inc., Los Angeles, CA, USA).

[2] = test system: BJ cells; experiment: Lactate dehydrogenase (LDH) release assay, BJ cells; assay type: cell-based, human
Description: Membrane integrity after peptide treatment was assessed based on LDH release using a CytoTox 96 Non-Radioactive Cytotoxicity Assay (Promega), as previously described. […] Maximal LDH release was obtained by complete cell lysis induced by using 1% of Triton X-100. The absorption resulting from LDH activity was measured in a microplate reader Mithras 940 (Berthold) at 490 nm, and the % LDH was calculated as: [(corrected absorbance of the LDH released in treated cells)/(corrected absorbance of the total LDH released)] * 100%.

[3] = test system: MRSA 388; experiment: Biofilm formation on polystyrene (crystal violet), MBEC; assay type: cell-based, Staphylococcus aureus; conditions: MRSA 388, biofilm
Description: (§1) The antibacterial assays were carried out using two Gram-negative (Escherichia coli ATCC 25922, Pseudomonas aeruginosa ATCC 27853) and two Gram-positive (Staphylococcus aureus ATCC 25923, MRSA (meticillin-Resistant S. aureus) 388 (ATCC, American Type Culture Collection) bacteria.
(§2) The method for assessment of biofilm formation on polystyrene microtiter plates was based on previously published protocols. The absorbance at 490 nm was measured with an Apollo LB 911ELISA (Berthold Technologies GmbH & Co. KG, Waltham, MA, USA) reader. The minimal biofilm-eradication concentration (MBEC) was defined as the lowest concentration of antibiotics required to eradicate the biofilm. All experiments were performed in triplicate.

[4] = test system: S. aureus 25923; experiment: as above; assay type: cell-based, Staphylococcus aureus; conditions: S. aureus 25923, biofilm
Description: as §1, §2

[5] = test system: Saccharomyces cerevisiae; assay type: cell-based; conditions: for sensitivity of sod1Δ and sod2Δ to menadione: 0.1 mM, SC medium; for sensitivity of sod1Δ and sod2Δ to menadione / lysine auxotrophy of sod1Δ cells (growth in SC-Lys medium): 16 h; for lysine auxotrophy of sod1Δ cells (growth in SC-Lys medium): various concentrations; for growth of yeast cells (WT, sod1Δ, sod2Δ): concentrations up to 2 mM
Description: The Saccharomyces cerevisiae laboratory strain BY4741 (MATa; his3Δ1; leu2Δ0; met15Δ0; ura3Δ0) considered wild type (WT), and the isogenic strains sod1Δ and sod2Δ lacking the genes SOD1 (encoding Cu/Zn-superoxide dismutase) and SOD2 (encoding Mn-superoxide dismutase) were obtained from EUROSCARF (Frankfurt, Germany). Cells were maintained, manipulated and grown in a rich medium (YPD, 1% w/v yeast extract, 2% w/v peptone, 2% w/v glucose; 2% w/v agar was added for solid media) or on synthetic complete medium (SC, 0.67% w/v yeast nitrogen base without amino acids, 2% w/v glucose) supplemented with the necessary amino acids. Lysine drop-out medium (SC-Lys) was prepared similarly to SC, omitting lysine from the recipe. We added the complexes to autoclaved media from DMSO sterile stocks (10 mM). An overnight culture was 10^3-fold diluted in fresh medium and incubated (200 rpm, 30 °C) until the culture reached a density of 5 × 10^5 cells. The compounds were added to the desired concentrations, and culture growth was monitored at 660 nm in a 96-well multi-scanner plate reader equipped with a thermostat and shaker (Varioskan, Thermo Fischer Scientific, Vantaa, Finland). Three biological replicates were set for all determinations, and data were presented as average ± standard error (SE). The Saccharomyces cerevisiae laboratory strain BY4741 (MATa; his3Δ1; leu2Δ0; met15Δ0; ura3Δ0) considered wild type (WT), and the isogenic strains sod1Δ and sod2Δ lacking the genes SOD1 (encoding Cu/Zn-superoxide dismutase) and SOD2 (encoding Mn-superoxide dismutase) were purchased from EUROSCARF (Frankfurt, Germany). Cells were maintained and manipulated and grown in YPD medium (1% w/v yeast extract, 2% w/v peptone, 2% w/v glucose; 2% w/v agar was added for solid media). Complexes were added to autoclaved media from DMSO sterile stocks (10 mM). To determine the effect of compounds on yeast growth, a fresh overnight pre-culture was 10^3-fold diluted in YPD and incubated (200 rpm, 30 °C) until the culture reached a density of 5 × 10^5 cells/mL. The compounds were added at the desired concentrations, and cell proliferation was monitored at 660 nm in a 96-well multi-scanner auto reader plate reader equipped with a thermostat and shaker (Varioskan Thermo Fischer Scientific, Vantaa, Finland). All determinations were done on three biological replicates.

Row | Compound | IC50 ([1]; 24 h) | reduction of BJ cell viability at the highest concentration ([1]; 24 h) | IC50 ([1]; 24 h, read-out: IC50) | IC50 ([1]; 48 h) | reduction of BJ cell viability at the highest concentration ([1]; 48 h) | IC50 ([1]; 48 h, read-out: IC50) | membrane integrity (LDH release) ([2]; 24 h) | LDH release ([2]; 48 h) | MBEC [3] | MBEC [4] | sensitivity of sod1Δ and sod2Δ to menadione [5] | lysine auxotrophy of sod1Δ cells (growth in SC-Lys medium) [5] | growth of yeast cells (WT, sod1Δ, sod2Δ) [5] | effect on viability of BJ cells ([1]; range of tested concentrations, 24 h and 48 h) | membrane integrity (LDH release) ([2]; 24 h and 48 h)
1 | Cc1cc(C)n2ncnc2n1.Cc1cc(C)n2ncnc2n1.Cc1cc(C)n2ncnc2n1.O.[Cu+2].[O-][Cl+3]([O-])([O-])[O-].[O-][Cl+3]([O-])([O-])[O-].c1cnc2c(c1)ccc1cccnc12 [Complex (2), [Cu(phen)(dmtp)2(OH2)](ClO4)2·dmtp] | 13.61 µg/mL | up to 45% | 15 µM | 4.50 µg/mL | up to 10% | 4.97 µM | not affected | around 20% | 0.04 mM | 0.04 mM | alleviated the sensitivity of sod1Δ and sod2Δ to menadione | improved the growth of sod1Δ mutants | not affected | – | –
2 | Cc1cc(C)n2ncnc2n1.Cc1cc(C)n2ncnc2n1.Cc1cc(C)n2ncnc2n1.O.[Cu+2].[O-][Cl+3]([O-])([O-])[O-].[O-][Cl+3]([O-])([O-])[O-].c1ccc(-c2ccccn2)nc1 [Complex (1), [Cu(bpy)(dmtp)2(OH2)](ClO4)2·dmtp] | – | – | – | – | – | – | – | – | 0.35 mM | 0.18 mM | alleviated the sensitivity of sod1Δ and sod2Δ to menadione | improved the growth of sod1Δ mutants | not affected | not affected | did not affect the membrane integrity
